Patent US20240335569A1, “FIBROBLAST ACTIVATION PROTEIN INHIBITORS AND USE THEREOF” (3 B PHARMACEUTICALS GMBH, priority 2021, published 2024)

What was measured:
Human recombinant FAP [1] = biological target: T1, Human recombinant FAP (Homo sapiens (Human), UniProt Q12884); test: Surface plasmon resonance assay (Biacore T200, SCK); format: binding; details: for HL [min] (Biacore): SPR dissociation half-life
Experimental: Surface plasmon resonance studies were performed using a Biacore™ T200 SPR system (Cytiva, formerly GE Healthcare). Briefly, polarized light is directed towards a gold-labeled sensor surface, and minimum intensity reflected light is detected. The angle of reflected light changes as molecules bind and dissociate. […] Test compounds are contacted with the loaded surface, and a real-time interaction profile with the FAP ligand is recorded in a sensorgram. In real-time, the association and dissociation of a binding interaction is measured, enabling calculation of association and dissociation rate constants and the corresponding affinity constants. Importantly, a background response is generated due to the difference in the refractive indices of the running and sample buffers, as well as unspecific binding of the test compounds to the flow cell surface. This background is measured and subtracted by running the sample on a control flow cell coated with the same density of capture antibody in the absence of immobilized FAP. Furthermore, baseline drift correction of the binding data is performed, which is caused by slow dissociation of the captured FAP from the immobilized antibody. This drift is measured by injecting running buffer through a flow cell with the antibody and FAP immobilized to the sensor surface.
Biacore™ CM5 sensor chips were used. […] A 150 μL aliquot was transferred into plastic vials and placed into the sample rack of the Biacore™ T200 instrument. Amine Coupling Kit Reagent solutions were transferred into plastic vials and placed into the sample rack: 90 μL of 0.4 M 1-ethyl-3-(3-dimethylaminopropyl) carbodiimide (EDC), and 90 μL of 0.1 M N-hydroxysuccinimide (NHS). A 130 μL aliquot of 1 M ethanolamine-HCl, pH 8.5, was transferred into plastic vials and placed into the sample rack. The Biacore™ liquid system was set-up as follows: Separate bottles containing distilled water (1 L), Running Buffer (500 mL), as well as an empty bottle for waste were placed onto the buffer tray. A preinstalled program for immobilization was used, with an immobilization level of 7000 RU. Immobilization was performed at 25° C. The immobilization procedure of anti-FAP antibodies was performed, as described in the Table 4.
Human recombinant FAP was diluted in Running Buffer to a final concentration of 20 μg/mL. A 100 μL aliquot of human FAP-Working-Solution was transferred into plastic vials and placed into a sample rack. A 0.5 mM Compound-Stock-Solution was prepared by dissolving each compound in DMSO. For each test compound, Compound-Stock-Solutions were diluted in Running Buffer (HBST) at 500 nM and further diluted with HBST-DMSO Buffer (0.1% DMSO). SPR binding analyses for binary complexes were performed in SCK mode at 25° C. Following three SCK measurements, a baseline drift was assessed by injecting running buffer through a flow cell, with the antibody and FAP immobilized to the sensor surface.
For each test compound, SPR raw data in the form of resonance units (RU) were plotted as sensorgrams using the Biacore™ T200 control software. The signal from the blank sensorgram was subtracted from that of the test compound sensorgram (blank corrected). The blank corrected sensorgram was corrected for baseline drift by subtracting the sensorgram of a SCK run without the test compound (running buffer only). The association rate (kon), dissociation rate (koff), dissociation constant (KD), and t1/2 were calculated from Blank-normalized SPR data using the 1:1 Langmuir binding model from the Biacore™ T200 evaluation software. Raw data and fit results were imported as text files in IDBS. The pKD value (negative decadic logarithm of dissociation constant) was calculated in the IDBS excel template.
Target sequence in this assay (Q12884 whole entry): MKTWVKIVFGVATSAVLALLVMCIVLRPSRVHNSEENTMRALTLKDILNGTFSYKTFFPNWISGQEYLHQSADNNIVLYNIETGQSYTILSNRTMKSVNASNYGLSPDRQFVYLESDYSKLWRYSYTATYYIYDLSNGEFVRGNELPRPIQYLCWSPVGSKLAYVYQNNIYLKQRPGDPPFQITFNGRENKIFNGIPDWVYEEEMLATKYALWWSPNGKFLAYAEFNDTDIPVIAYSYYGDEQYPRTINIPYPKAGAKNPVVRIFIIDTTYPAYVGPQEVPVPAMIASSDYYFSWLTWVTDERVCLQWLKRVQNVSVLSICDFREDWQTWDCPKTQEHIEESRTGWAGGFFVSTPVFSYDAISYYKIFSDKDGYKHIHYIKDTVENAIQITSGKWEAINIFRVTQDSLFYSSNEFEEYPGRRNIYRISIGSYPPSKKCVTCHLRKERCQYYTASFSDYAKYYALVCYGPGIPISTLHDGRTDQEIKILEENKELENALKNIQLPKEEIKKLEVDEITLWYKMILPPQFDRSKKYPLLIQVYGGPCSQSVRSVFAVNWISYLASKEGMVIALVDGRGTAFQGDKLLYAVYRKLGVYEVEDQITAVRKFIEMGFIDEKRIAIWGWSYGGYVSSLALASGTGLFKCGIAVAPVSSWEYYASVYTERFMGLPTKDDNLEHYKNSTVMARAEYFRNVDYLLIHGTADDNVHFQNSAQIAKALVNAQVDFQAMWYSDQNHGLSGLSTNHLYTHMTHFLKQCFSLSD

[2] = biological target: FAP-expressing human WI-38 fibroblasts (Homo sapiens (Human), UniProt Q12884); test: FACS binding assay (competitive, Cy5-labeled 3BP-2935)
Chain of FAP-expressing human WI-38 fibroblasts (Q12884 whole entry): as above
Experimental: In order to determine binding of compounds according to the present invention to FAP-expressing cells, a competitive FACS binding assay was established. […] Cells were diluted in FACS buffer to a final concentration of 100.000 cells per ml and 200 μl of the cell suspension are transferred to a u-shaped non-binding 96-well plate (Greiner). […] Cell were washed twice with FACS buffer (see above) and resuspended in 200 μl FACS buffer. Cells were analyzed in an Attune NxT flow cytometer (Thermo Fisher Scientific). Median fluorescence intensities (Cy5 channel) were calculated by Attune NxT software and plotted against test compound concentrations. Four parameter logistic (4PL) curve fitting and pIC50 calculations were performed using ActivityBase software.

Human recombinant FAP [3] = biological target: T1, Human recombinant FAP; test: FAP protease activity assay (human), FRET-based; format: biochemical
Experimental: (§1) In order to determine the inhibitory activity a FRET-based FAP protease activity assay was established.
Four parameter logistic (4PL) curve fitting and pIC50 calculations were performed using ActivityBase software (IDBS).
Target sequence in this assay (Q12884 26-760): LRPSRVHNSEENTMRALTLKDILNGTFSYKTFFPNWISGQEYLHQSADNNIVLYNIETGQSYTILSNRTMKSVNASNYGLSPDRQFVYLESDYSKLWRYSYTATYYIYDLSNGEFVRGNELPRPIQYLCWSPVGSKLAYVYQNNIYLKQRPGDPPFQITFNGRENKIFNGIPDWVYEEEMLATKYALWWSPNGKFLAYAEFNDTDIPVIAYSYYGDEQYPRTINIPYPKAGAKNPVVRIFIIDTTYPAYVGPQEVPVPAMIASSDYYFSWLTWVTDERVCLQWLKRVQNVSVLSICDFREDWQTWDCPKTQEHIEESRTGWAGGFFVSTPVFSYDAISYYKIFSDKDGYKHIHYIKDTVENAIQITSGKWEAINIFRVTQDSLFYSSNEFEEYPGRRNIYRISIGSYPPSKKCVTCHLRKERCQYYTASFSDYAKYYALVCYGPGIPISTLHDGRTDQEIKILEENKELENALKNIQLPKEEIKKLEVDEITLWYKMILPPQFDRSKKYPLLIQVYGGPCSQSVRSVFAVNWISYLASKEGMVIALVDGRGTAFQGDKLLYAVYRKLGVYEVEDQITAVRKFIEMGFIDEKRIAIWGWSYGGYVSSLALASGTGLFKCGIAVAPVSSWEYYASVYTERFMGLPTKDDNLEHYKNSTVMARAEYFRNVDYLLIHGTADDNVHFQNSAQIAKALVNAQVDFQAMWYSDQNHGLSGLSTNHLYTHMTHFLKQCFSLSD

recombinant human PREP = recombinant human PREP (Homo sapiens (Human), UniProt P48147); test: PREP protease activity assay; format: biochemical
Chain of recombinant human PREP (P48147 whole entry): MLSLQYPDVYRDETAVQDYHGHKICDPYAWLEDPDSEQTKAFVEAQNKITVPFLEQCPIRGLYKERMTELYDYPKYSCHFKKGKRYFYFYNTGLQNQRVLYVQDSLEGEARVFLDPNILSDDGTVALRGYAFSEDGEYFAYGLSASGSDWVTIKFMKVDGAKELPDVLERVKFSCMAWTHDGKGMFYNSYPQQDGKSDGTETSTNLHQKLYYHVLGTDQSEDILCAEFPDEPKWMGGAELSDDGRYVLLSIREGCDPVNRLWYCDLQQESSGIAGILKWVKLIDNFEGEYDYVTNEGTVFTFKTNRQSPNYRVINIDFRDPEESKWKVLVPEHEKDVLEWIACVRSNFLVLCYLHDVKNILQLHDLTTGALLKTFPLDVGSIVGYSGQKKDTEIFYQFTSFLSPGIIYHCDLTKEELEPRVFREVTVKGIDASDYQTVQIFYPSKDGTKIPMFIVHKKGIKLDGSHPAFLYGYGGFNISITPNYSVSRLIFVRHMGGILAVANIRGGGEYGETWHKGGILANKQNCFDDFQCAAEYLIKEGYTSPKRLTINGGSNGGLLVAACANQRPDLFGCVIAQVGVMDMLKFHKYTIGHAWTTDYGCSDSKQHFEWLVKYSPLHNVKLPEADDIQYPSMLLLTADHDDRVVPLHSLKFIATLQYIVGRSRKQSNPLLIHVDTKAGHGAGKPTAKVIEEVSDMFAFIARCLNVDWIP
Experimental: (§2) The PREP activity assay was performed using the FACS buffer (PBS including 1% FBS, Sigma-Aldrich, Cat #D8537). […] The DPP4 activity assay was performed in DPP assay buffer (25 mM Tris, pH 8.0). […] Four parameter logistic (4PL) curve fitting and pIC50 calculations were performed using ActivityBase software.

Recombinant human DPP4 = Recombinant human DPP4 (Homo sapiens (Human), UniProt P27487); test: DPP4 protease activity assay; format: biochemical
Chain of Recombinant human DPP4 (P27487 whole entry): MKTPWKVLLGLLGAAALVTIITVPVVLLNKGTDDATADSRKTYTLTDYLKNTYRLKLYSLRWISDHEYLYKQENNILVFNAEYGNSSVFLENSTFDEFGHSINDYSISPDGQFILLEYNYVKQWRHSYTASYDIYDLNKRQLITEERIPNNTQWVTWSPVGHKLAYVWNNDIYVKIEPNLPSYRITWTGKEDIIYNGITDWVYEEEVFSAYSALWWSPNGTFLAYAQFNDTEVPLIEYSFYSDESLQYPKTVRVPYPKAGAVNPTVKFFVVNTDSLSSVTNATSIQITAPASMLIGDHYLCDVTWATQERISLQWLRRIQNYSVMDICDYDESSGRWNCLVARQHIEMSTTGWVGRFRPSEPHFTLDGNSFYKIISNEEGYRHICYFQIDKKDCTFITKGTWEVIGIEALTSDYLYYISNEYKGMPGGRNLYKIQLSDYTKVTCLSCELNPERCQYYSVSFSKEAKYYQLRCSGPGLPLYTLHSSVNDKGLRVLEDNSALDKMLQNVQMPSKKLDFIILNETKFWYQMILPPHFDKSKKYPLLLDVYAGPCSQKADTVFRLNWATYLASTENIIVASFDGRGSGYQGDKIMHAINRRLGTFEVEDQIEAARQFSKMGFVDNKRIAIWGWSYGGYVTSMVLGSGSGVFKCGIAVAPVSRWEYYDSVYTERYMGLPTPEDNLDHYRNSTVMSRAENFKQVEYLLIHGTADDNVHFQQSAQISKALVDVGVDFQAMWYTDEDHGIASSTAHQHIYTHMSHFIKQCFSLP
Experimental: as §2

Recombinant mouse FAP = Recombinant mouse FAP (Mus musculus (Mouse), UniProt P97321); test: FAP protease activity assay (mouse), FRET-based; format: biochemical
Chain of Recombinant mouse FAP (P97321 whole entry): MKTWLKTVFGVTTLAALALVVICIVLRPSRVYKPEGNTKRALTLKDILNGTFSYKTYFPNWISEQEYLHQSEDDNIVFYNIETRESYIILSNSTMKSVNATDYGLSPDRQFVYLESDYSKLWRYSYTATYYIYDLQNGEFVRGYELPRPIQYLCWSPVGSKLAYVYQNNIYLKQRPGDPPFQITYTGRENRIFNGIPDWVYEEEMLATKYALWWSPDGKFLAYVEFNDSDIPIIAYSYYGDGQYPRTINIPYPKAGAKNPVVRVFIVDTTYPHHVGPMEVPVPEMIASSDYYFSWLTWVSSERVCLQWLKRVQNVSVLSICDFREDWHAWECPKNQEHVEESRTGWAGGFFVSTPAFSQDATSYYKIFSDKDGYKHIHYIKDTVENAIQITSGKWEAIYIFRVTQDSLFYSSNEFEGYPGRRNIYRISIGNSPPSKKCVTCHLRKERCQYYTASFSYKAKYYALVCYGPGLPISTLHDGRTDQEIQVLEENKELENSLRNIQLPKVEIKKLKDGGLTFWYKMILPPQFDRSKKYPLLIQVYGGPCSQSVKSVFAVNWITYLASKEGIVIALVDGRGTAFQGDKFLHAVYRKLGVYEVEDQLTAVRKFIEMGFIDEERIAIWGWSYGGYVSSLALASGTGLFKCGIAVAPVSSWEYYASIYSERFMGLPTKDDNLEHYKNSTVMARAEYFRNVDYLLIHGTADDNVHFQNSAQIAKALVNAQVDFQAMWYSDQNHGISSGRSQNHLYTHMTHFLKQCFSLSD
Experimental: as §1
Four parameter logistic (4PL) curve fitting and pIC50 calculations were performed using ActivityBase software.

HT-29 cells = test: Stability in the presence of tumor cells (HT-29), FAP IC50 of supernatants; format: in vitro ADME, human
[4] = FAP-expressing WI-38 fibroblasts
[5] = recombinant human FAP, FRET protease activity
[6] = recombinant mouse FAP protease activity
[7] = human FAP protease activity, FRET
[8] = recombinant mouse FAP, FRET protease activity

| SMILES | pKD (Biacore) (Human recombinant FAP [1]; SPR) | HL [min] (Biacore) (Human recombinant FAP [1]) | pIC50 (FACS) [2, 4] | pIC50 (Activity) (Human recombinant FAP [3]; [5]) | pIC50 (PREP) (recombinant human PREP) | pIC50 (DPP4) (Recombinant human DPP4) | pIC50 (FACS) ([2]; WI-38 fibroblasts) | pIC50 (mouseFAP) (Recombinant mouse FAP; [6]) | pIC50 (Activity) (Human recombinant FAP [3]; [7]) | further results |
| --- | --- | --- | --- | --- | --- | --- | --- | --- | --- | --- |
| O=C(NCC(=O)N1CCC[C@H]1C(=O)c1nccs1)c1ccnc2ccccc12 [Compound 3BP-3206] | 7.9 | 0.3 | 7 | 7.3 | 7.6 | <6 |  |  |  |  |
| N#C[C@@H]1CC(F)(F)CN1C(=O)CNC(=O)c1ccnc2ccc(-c3ccc(C(=O)NCCCNC(O)CN4CCN5CCN6CCN(CC4)CC(=O)[O][Eu]([O]C(=O)C6)[O]C(=O)C5)cc3)cc12 (stereo partly shown) [Compound 3BP-3829] | >10.5 | >150 |  |  |  | <6 | 8.9 | 8.9 | 9.4 |  |
| N#C[C@@H]1CC(F)(F)CN1C(=O)CNC(=O)c1ccnc2c1=CC(OCCCN1CCN(C(=O)CN3CCN4CCN5CCN(CC3)CC(=O)[O][In]([O]C(=O)C5)[O]C(=O)C4)CC1)CC=2 (stereo partly shown) [Compound 3BP-3468] | 10.5 | 69 | 8.7 | 9.2 | <6 | <6 |  |  |  | pIC50 (mouseFAP) (Recombinant mouse FAP; [8]): 9 |
| CC(C)(C)c1nnc(C(=O)[C@@H]2CCCN2C(=O)CNC(=O)c2ccnc3ccccc23)o1 [Compound 3BP-3632] | 8.6 | 0.4 | 7.8 | 8.4 | 8.9 | <6 |  |  |  | pIC50 (mouseFAP) (Recombinant mouse FAP; [8]): 8.4 |
| CS(=O)(=O)c1cccc(-c2ccc3nccc(C(=O)NCC(=O)N4CCC[C@H]4C#N)c3c2)c1 [Compound 3BP-3132] | 9.4 | 2.5 | 8.4 | 9 | <6 | <6 |  |  |  |  |
| N#C[C@@H]1CCCN1C(=O)CNC(=O)c1ccnc2ccc(-c3ccc(C(=O)NCCCN(CC(=O)O)C(=O)CN4CCN(CC(=O)O)CCN(CC(=O)O)CCN(CC(=O)O)CC4)cc3)cc12 [Compound 3BP-3954, (S)-2,2′,2″-(10-(2-((carboxymethyl)(3-(4-(4-(2-(2-cyanopyrrolidin-1-yl)-2-oxoethylcarbamoyl)quinolin-6-yl)benzamido)propyl)amino)-2-oxoethyl)-1,4,7,10-tetraazacyclododecane-1,4,7-triyl)triacetic Acid] |  | >150 |  |  |  |  |  |  |  | Kd (Human recombinant FAP [1]; SPR, read-out: pKD (Biacore) (converted)): < 0.0316 nM; IC50 ([2]; WI-38 fibroblasts): 3.98 nM; IC50 (Human recombinant FAP [3]; human FAP protease activity, FRET, read-out: pIC50 (Activity) (converted)): 1.26 nM; IC50 (recombinant human PREP): > 1000 nM; IC50 (Recombinant human DPP4; read-out: pIC50 (DPP4) (converted)): > 1000 nM |
| CS(=O)(=O)c1cc(F)c(-c2ccc3nccc(C(=O)NCC(=O)N4CCC[C@H]4C#N)c3c2)c(F)c1 [Compound 3BP-3828] |  |  |  |  |  | <6 | 8.5 | 9 | 9.3 |  |
| CS(=O)(=O)c1ccc(-c2ccc3nccc(C(=O)NCC(=O)N4CCC[C@H]4C#N)c3c2)cc1 [Compound 3BP-3235] | 9.8 | 12 | 8.4 | 9.2 | <6 | <6 |  |  |  |  |
| CS(=O)(=O)c1ccc(-c2ccc3nccc(C(=O)NCC(=O)N4CC(F)(F)C[C@H]4C#N)c3c2)cc1 [Compound 3BP-3233] | >10.5 | 130 | 9 | 9.2 | <6 | <6 |  |  |  | pIC50 (mouseFAP) (Recombinant mouse FAP; [8]): 9.1 |
| N#C[C@@H]1CC(F)(F)CN1C(=O)CNC(=O)c1ccnc2ccc(OCCCN3CCN(C(=O)CN4CCN5CCN6CCN(CC4)CC(=O)[O][Lu]([O]C(=O)C6)[O]C(=O)C5)CC3)cc12 [Compound 3BP-3469] | 10.2 | 35.5 | 8.7 | 9.3 |  | <6 |  |  |  | pIC50 (mouseFAP) (Recombinant mouse FAP; [8]): 9.1; pIC50 (incubation in cell medium w/o HT-29) (HT-29 cells; 10 μM compound, 24 hours at 37° C. in control wells without cells, supernatant tested on recombinant human FAP): 9.2; pIC50 (incubation in the presence of HT-29 cells) (HT-29 cells; 10 μM compound, 24 hours at 37° C. with HT-29 cells, supernatant tested on recombinant human FAP): 8.3; Residual activity after incubation with HT-29 cells for 24 hours (%) (HT-29 cells; HT-29 cells, 24 hours): 13% |
| CS(=O)(=O)c1ccc(-c2ccc3nccc(C(=O)NCC(=O)N4C[C@@H](F)C[C@H]4C#N)c3c2)cc1 [Compound 3BP-3774] |  |  |  |  |  | <6 | 8.8 | 9.2 | 9.2 |  |
| Cc1cc(S(C)(=O)=O)ccc1-c1ccc2nccc(C(=O)NCC(=O)N3CC(F)(F)C[C@H]3C#N)c2c1 [Compound 3BP-3952] |  |  |  |  |  | 6.1 | 8.7 | 8.8 | 9.3 |  |
| N#C[C@@H]1CCCN1C(=O)CNC(=O)c1ccnc2ccc(-c3ccc(C(=O)O)cc3)cc12 [Compound 3BP-3295] |  | 11 |  |  |  |  |  |  |  | IC50 (recombinant human PREP): > 1000 nM |
| N#C[C@@H]1CCCN1C(=O)CNC(=O)c1ccnc2ccc(-c3ccc(C(=O)NCCCNC(O)CN4CCN5CCN6CCN(CC4)CC(=O)[O][Eu]([O]C(=O)C6)[O]C(=O)C5)cc3)cc12 (stereo partly shown) [Compound 3BP-3830] | 10 | 64 |  |  |  | <6 | 8.5 | 8.7 | 9.3 |  |
| N#C[C@@H]1CCCN1C(=O)CNC(=O)c1ccnc2cc(-c3cccc(C(=O)O)c3)ccc12 [Compound 3BP-3293] |  |  | 8.6 | 8.8 | <6 | <6 |  |  |  |  |
| CS(=O)(=O)c1ccc(-c2ccc3nccc(C(=O)NCC(=O)N4C[C@H](F)C[C@H]4C#N)c3c2)cc1 [Compound 3BP-3773] |  |  |  |  |  | <6 | 7.3 | 8 | 8.5 |  |
| CS(=O)(=O)c1cccc(-c2ccc3c(C(=O)NCC(=O)N4CCC[C@H]4C#N)ccnc3c2)c1 [Compound 3BP-3133] | 9.3 | 5.7 | 8.2 | 8.7 | <6 | <6 |  |  |  |  |
